According to publication PMC4962298 (Research in Pharmaceutical Sciences, 2016):

What was measured:
[1] = tested on: intestinal P-gp-mediated digoxin transport; test: In situ rat single-pass intestinal perfusion; type: in vivo; details: for increase of digoxin Peff relative to digoxin alone: rat SPIP
[2] = tested on: P-gp expression in Caco-2 cells; test: Western blot analysis of P-gp expression; type: cell-based; details: 48 h
[3] = 1 μM drug, not statistically significant

Question: For `C[C@H]1O[C@@H](O[C@H]2[C@@H](O)C[C@H](O[C@H]3[C@@H](O)C[C@H](O[C@H]4CC[C@@]5(C)[C@H](CC[C@@H]6[C@@H]5C[C@@H](O)[C@]5(C)[C@@H](C7=CC(=O)OC7)CC[C@]65O)C4)O[C@@H]3C)O[C@@H]2C)C[C@H](O)[C@@H]1O` [digoxin], which “Peff of digoxin (20 μM) alone” value ([1]; rat jejunum SPIP, digoxin 20 μM, no inhibitor, n = 3, mean ± SD) is on record?
Answer: Its value is 3.4 ± 0.8 × 10^-5cm/s.

Question: `Cc1ccc(S(=O)(=O)NC(=O)NN2CC3CCCC3C2)cc1` (stereo not drawn) [gliclazide] was tested. Which “P-gp protein levels (P-gp/β-actin) relative to the untreated control” value ([2]; 500 μM drug) did it give?
Answer: Its value is “decreased”.

Question: And the “increase of digoxin Peff relative to digoxin alone” value ([1]; 0.1 μM drug, significant)?
Answer: Its value is “about 59%”.

Question: What about the “increase of digoxin Peff relative to digoxin alone” value ([1]; 10 μM drug, significant) of the same compound?
Answer: The value was ~76%.

Question: And the “increase of digoxin Peff relative to digoxin alone” value ([1]; 500 μM drug, significant)?
Answer: The value was ~153%.

Question: Which “P-gp protein levels (P-gp/β-actin) relative to the untreated control” value ([2]; 7000 μM drug) does the source give for `CN(C)C(=N)N=C(N)N` [metformin] here?
Answer: Its value is “decreased”.

Question: And the “increase of digoxin Peff relative to digoxin alone” value [1, 3]?
Answer: The value was “about 44%”.

Question: And the “increase of digoxin Peff relative to digoxin alone” value ([1]; 100 μM drug, P < 0.01)?
Answer: Its value is 117.6%.

Question: What about the “increase of digoxin Peff relative to digoxin alone” value ([1]; 7000 μM drug, P < 0.01) of the same compound?
Answer: Its value is 167.6%.

Question: How did the “P-gp protein levels (P-gp/β-actin) relative to the untreated control” value ([2]; 300 μM drug) turn out when `CCc1ccc(CCOc2ccc(CC3SC(=O)NC3=O)cc2)nc1` (stereo not drawn) [pioglitazone] was run?
Answer: The value was “decreased”.

Question: And the “increase of digoxin Peff relative to digoxin alone” value [1, 3]?
Answer: Its value is “about 38%”.

Question: What about the “increase of digoxin Peff relative to digoxin alone” value ([1]; 300 μM drug, P < 0.01) of the same compound?
Answer: Its value is ~100%.
